Consider 17 compounds from patent US4612322A, “Azole type dioxolane derivatives” (Shionogi & Co., Ltd., priority 1983, dated 1986).

One data set concerns Trichophyton asteroides. The data set can be described thus: Antimycotic test against Trichophyton asteroides (in vitro, Sabouraud's dextrose broth). Format: cell-based. The conditions noted are these: read-out: Minimum Inhibitory Concentration (MIC). An excerpt:
Sabouraud's dextrose broth* was used as culture medium.

In data set [1] the test system is Candida albicans KE-2. Description: Test on inhibition against formation of the pseudohyphae in Candida albicans. Format: cell-based. The conditions noted are these: KE2; Candida albicans KE-2, 1×10^6 cells/ml, Eagle broth + 20% bovine serum, 37° C., 18 hours; read-out: Inhibitory concentration against pseudohyphae formation. As for the experimental part:
To Eagle MEN broth (Nissan 2, Nissui Seiyaku Co., Ltd.) was added 20% bovine serum and inoculated Candida albicans KE-2 yeast cells at rate of 1×10^6 cells/ml (final inoculum size), and each test compound was added thereto in two-fold serial dilution method. After termination of cultivation at 37° C. for 18 hours, each organism of the serial dilution was smeared and fixed on a slide glass and stained by Giemsa's staining, and occurrence of the pseudohyphae was observed under a microscope. Minimum concentration which could inhibit the formation of pseudohyphae was regarded as the inhibitory concentration of the compound against pseudohyphae formation.

The subject of data set [2] is Candida albicans KE-2. The data set can be described thus: Therapeutic effect against experimental candidasis in mice. Type of data set: in vivo, Jcl-ICR female mice. The conditions noted are these: 15th day from infection; 25 mg/Kg oral, twice per day for 5 days; 5×10^5 Candida albicans KE-2 cells i.v.; eight mice; control 0. As for the experimental part:
Candida albicans KE-2 was cultured in a Sabouraud's dextrose agar at 28° C. for 48 hours, and the resulting culture was suspended in the Sabouraud's dextrose broth. The resulting cells (5×10^5) were intravenously administered at the tail of Jcl-ICR female mice (4 weeks age, body weight: 18-20 g). Each test compound suspended in 2% gum-arabic was orally administered at a dose of 25 mg/Kg twice per day for 5 days; on the first day, the test compound is administered twice, i.e., immediately after the infection and 2 hours later; on the second day or later, 24 hours after the administration of the previous day respectively. After the infection, no test compound was administered to a control group. Eight mice were employed in the control group and the test groups to which the test compound was administered The therapuetic effect was evaluated on the survival rate at the 15th day from the day of infection; the result is shown below.

For data set [3] the following is noted: in vivo, po; cited from earlier work.

Values after ≈ are worked out from the molar mass of the structure shown.

As to `O=C1OC(c2ccc(Cl)cc2)C(Cn2cncn2)(c2ccc(Cl)cc2Cl)O1` (single isomer, unassigned) [Compound 19], the MIC with Trichophyton asteroides worked out at 0.2 µg/mL (≈ 0.471 µM). Moreover, in the data set with Candida albicans KE-2 [1], the minimal effective concentration is 0.04 µg/mL. The Survival rate in the data set on Candida albicans KE-2 [2] was found to be 86%. The matching figures for `O=S1OC(c2ccc(Cl)cc2Cl)C(Cn2cncn2)(c2ccc(Cl)cc2)O1` (single isomer, unassigned) [Compound 27B]: 0.1 µg/mL (≈ 0.225 µM), 0.02 µg/mL and 75%. As to `O=C1OC(c2ccc(F)cc2)C(Cn2cncn2)(c2ccc(Cl)cc2Cl)O1` (stereo not shown) [Compound 1, 4-(2,4-dichlorophenyl)-5-(4-fluorophenyl)-2-oxo-4-(1H-1,2,4-triazol-1-yl)methyl-1,3-dioxolane], the MIC with Trichophyton asteroides was 0.1 µg/mL (≈ 0.245 µM). For the same compound, the minimal effective concentration with Candida albicans KE-2 [1] was determined as 0.31 µg/mL. Besides, in the data set on Candida albicans KE-2 [2], the Survival rate worked out at 87.5%. On the same counts, the results for `CC(C)C1OC(=O)OC1(Cn1cncn1)c1ccc(Cl)cc1Cl` (stereo not shown) [Compound 2] are 3.1 µg/mL (≈ 8.7 µM), 0.63 µg/mL and 100%. `O=C1OC(c2ccccc2)C(Cn2cncn2)(c2ccc(Cl)cc2Cl)O1` (stereo not shown) [Compound 3]: the MIC in the data set with Trichophyton asteroides was determined as 0.1 µg/mL (≈ 0.256 µM). The same measure, in the same setting: in the case of `CCCCC1OC(=O)OC1(Cn1cncn1)c1ccc(Cl)cc1Cl` (stereo not shown) [Compound 4] it was 0.2 µg/mL (≈ 0.54 µM).

Consider `O=C1OC(c2ccc(Cl)cc2Cl)C(Cn2cncn2)(c2ccc(Cl)cc2)O1` (stereo not shown) [Compound 5], for which the minimal effective concentration with Candida albicans KE-2 [1] was determined as 0.63 µg/mL. For the same compound, the Survival rate in the data set with Candida albicans KE-2 [2] was found to be 100%. `O=C1OC(c2ccccc2Cl)C(Cn2cncn2)(c2ccccc2Cl)O1` (stereo not shown) [Compound 7]: in the data set with Candida albicans KE-2 [1], the minimal effective concentration amounted to 0.31 µg/mL.

Take `O=C1OC(c2ccc(F)cc2)C(Cn2cncn2)(c2ccc(F)cc2)O1` (stereo not shown) [Compound 8]: in the data set on Trichophyton asteroides, the MIC is 3.1 µg/mL (≈ 8.68 µM). Take `Cc1ccc(C2OC(=O)OC2(Cn2cncn2)c2ccc(C)cc2)cc1` (stereo not shown) [Compound 11]: in the data set with Candida albicans KE-2 [1], the minimal effective concentration came out at 1.25 µg/mL. Regarding `CCCC1OC(=O)OC1(Cn1cncn1)c1ccc(Cl)cc1Cl` (stereo not shown) [Compound 12], the MIC in the data set with Trichophyton asteroides was determined as 1.6 µg/mL (≈ 4.49 µM). For the compound `Cc1ccc(C2OC(=O)OC2(Cn2cncn2)c2ccccc2Cl)cc1` (stereo not shown) [Compound 15], in the data set with Trichophyton asteroides, the MIC stood at 3.1 µg/mL (≈ 8.38 µM). Further, the minimal effective concentration in the data set on Candida albicans KE-2 [1] stood at 0.63 µg/mL. Take `O=C1OC(c2ccccc2)C(Cn2ccnc2)(c2ccc(Cl)cc2Cl)O1` (stereo not shown) [Compound 23]: the MIC in the data set with Trichophyton asteroides was determined as 0.1 µg/mL (≈ 0.257 µM). Also, in the data set with Candida albicans KE-2 [1], the minimal effective concentration was 0.16 µg/mL. The matching figures for `CCCC1OCOC1(Cn1cncn1)c1ccc(Cl)cc1` (stereo not shown) [Compound 33]: 0.2 µg/mL (≈ 0.65 µM) and 0.16 µg/mL. Consider `Fc1ccc(C2OCOC2(Cn2cncn2)c2ccc(Cl)cc2Cl)cc1` (stereo not shown) [Compound 34], for which the MIC in the data set on Trichophyton asteroides was found to be 0.1 µg/mL (≈ 0.254 µM). Besides, in the data set with Candida albicans KE-2 [1], the minimal effective concentration was found to be 0.31 µg/mL. In the case of `CC1(C)OC(c2ccc(Cl)cc2Cl)C(Cn2cncn2)(c2ccc(Cl)cc2)O1` (stereo not shown) [Compound 39, 4-(4-chlorophenyl)-5-(2,4-dichlorophenyl)-2,2-dimethyl-4-(1H-1,2,4-triazol-1-yl)methyl-1,3-dioxolane], the MIC in the data set with Trichophyton asteroides stood at 0.8 µg/mL (≈ 1.82 µM). The minimal effective concentration in the data set on Candida albicans KE-2 [1] stood at 5 µg/mL. Take `CC(=O)N1CCN(c2ccc(OCC3COC(Cn4ccnc4)(c4ccc(Cl)cc4Cl)O3)cc2)CC1` (stereo not shown) [Ketoconazole]: the adverse reactions result in data set [3] is “hepatic dysfunction”.
